Results published in patent US20220117919A1, “ENHANCED BIOAVAILABILITY OF N-(2,6-BIS(1-METHYLETHYL)PHENYL)-N'-((1-(4-(DIMETHYLAMINO)-PHENYL)CYCLOPENTYL)METHYL)UREA HYDROCHLORIDE” (The Regents of the University of Michigan, priority 2015, published 2022).
“And” between values parts separate entries of the source, which are not always exact repeats. Identical values can stand only once. Counter-ions that a name gives are not always drawn. Like-named read-outs stand apart in the source and are kept apart here.

Test: Food and acidic beverage effect on bioavailability of ATR-101 tablets, 3-way crossover plasma PK study
Type: in vivo, human
Conditions: for kel: in h-1; for AUC0-t Ratio C/A: fasting with acidic beverage vs fasting with water; for AUC0-t Ratio B/C: fed with water vs fasting with acidic beverage; for AUC0-t Ratio B/A: fed with water vs fasting with water
Description: To evaluate the effects of food and of an acidic beverage on bioavailability of ATR-101 tablets prepared according to Example 2 (see Table 2), an open-label, randomized, 3-period, 3-way crossover, 3-sequence study was carried out with fourteen healthy, adult, non-tobacco using male and female (non-childbearing potential only) human subjects.
Three different treatments A, B, and C were administered as follows:
Treatment A: 500 mg ATR-101 (1×500 mg tablet) administered with water at Hour 0 on Day 1 following an overnight fast.
Treatment B: 500 mg ATR-101 (1×500 mg tablet) administered with water at Hour 0, 30 minutes after the start of a high-fat breakfast, on Day 1.
Treatment C: 500 mg ATR-101 (1×500 mg tablet) administered with Coca-Cola® Classic at Hour 0 on Day 1 following an overnight fast.
On Day 1 of Period 1, subjects were randomized to one of 3 treatment sequences: ABC, BCA, or CBA. For Treatments A and B, ATR-101 was administered orally with approximately 240 mL of water. For Treatment C, ATR-101 was administered orally with approximately 240 mL of Coca-Cola® Classic. Water (except water provided with dosing for Treatments A and B) was restricted 1 hour prior to and 1 hour after each study drug administration, but was allowed ad libitum at all other times. Other fluids were given as part of the standard meals (including the breakfast administered prior to study drug dosing for Treatment B) and/or snacks, but were restricted at all other times (except for the Coca-Cola® Classic beverage provided with dosing in Treatment C) throughout the confinement period.
For Treatments A and C, subjects fasted overnight for at least 10 hours prior to study drug administration and continued the fast for at least 4 hours post-dose.
For Treatment B, subjects were required to fast overnight for at least 10 hours until 30 minutes prior to study drug administration, when they were given breakfast which was entirely consumed within 30 minutes. A representative breakfast includes 2 slices of buttered toast, 2 fried eggs, 2 strips of bacon, 4 oz of hash brown potatoes, and 240 mL of whole milk.
On Day 1 of each period, a standard lunch and dinner was provided at approximately 4 and 9 hours post-dose, respectively, and a snack was also offered at approximately 12 hours post-dose. On other days when confined in the CRU, standard meals and/or snacks were provided at appropriate times. When confined, subjects were required to fast from all food and drink except water between meals and snacks served at the clinical research unit.
Each meal and/or snack served at the clinical research unit was standardized and was similar in caloric content and composition (except for the meal served as part of Treatment B) and was taken at approximately the same time in each period.
For all subjects, blood samples for the determination of ATR-101 plasma concentration were collected at pre-dose and 0.5, 1, 1.5, 2, 2.5, 3, 3.5, 4, 5, 6, 8, 12, 16, 24, 36, and 48 hours post-dose. PK parameters for plasma ATR-101 were calculated as follows: • AUC0-t: The area under the plasma concentration-time curve, from time 0 to the last measurable non-zero concentration, was calculated by the linear trapezoidal method. • AUC0-inf: The area under the plasma concentration-time curve from time 0 extrapolated to infinity. AUC0-inf was calculated as the sum of AUC0-t plus the ratio of the last measurable plasma concentration to the elimination rate constant. • AUC%extrap: Percent of AUC0-inf extrapolated, represented as
[formula] • Cmax: Maximum observed concentration. • tmax: Time to reach Cmax. If the maximum value occurred at more than one time point, tmax was defined as the first time point with this value. • ke1: Apparent first-order terminal elimination rate constant calculated from a semi-log plot of the plasma concentration versus time curve. […]

[1] = Treatment C (fasting with acidic beverage), single oral 500 mg, Minimum
[2] = Treatment C (fasting with acidic beverage, Coca-Cola Classic), single oral 500 mg, individual subject, hydrochloride
[3] = individual subject, hydrochloride

## CC(C)c1cccc(C(C)C)c1NC(=O)NCC1(c2ccc(N(C)C)cc2)CCCC1 [ATR-101, N-(2,6-bis(1-methylethyl)phenyl)-N′-((1-(4-(dimethylamino)-phenyl)cyclopentyl)methyl)urea hydrochloride]
[1]
  tmax: 1.50 h
  kel: 0.0249
[2]
  AUC0-inf: 728 and 3990 and 5760 and 2610 and 5420 and 4530 and 6970 and 2880 and 3670 and 2670 and 6680 and 5020
  AUC0-t: 572 and 5100 and 2510 and 4940 and 4110 and 6430 and 2360 and 3660 and 3400 and 2250 and 6310 and 4300
  AUC% extrap: 21.5% and 4.67% and 11.3% and 3.84% and 8.70% and 9.20% and 7.61% and 18.3% and 7.31% and 15.6% and 5.52% and 14.2%
  Cmax: 19.8 ng/mL and 734 ng/mL and 1030 ng/mL and 438 ng/mL and 948 ng/mL and 645 ng/mL and 952 ng/mL and 461 ng/mL and 602 ng/mL and 525 ng/mL and 1550 ng/mL and 893 ng/mL
  t1/2: 17.5 h and 13.8 h and 8.2 h and 14.0 h and 18.7 h and 20.1 h and 7.9 h and 16.0 h and 26.9 h and 14.2 h and 27.1 h
  tmax: 6.00 h and 3.00 h and 1.50 h and 2.50 h
  kel: 0.0397 and 0.0501 and 0.0380 and 0.0496 and 0.0371 and 0.0345 and 0.0353 and 0.0249 and 0.0433 and 0.0258 and 0.0488 and 0.0256
Both sexes, human, plasma, po, 500 mg, Treatment A (fasting with water), single oral 500 mg, Geometric Mean, read-out: AUC0-inf
  AUC0-inf: 3480 ng·h/mL
Both sexes, human, plasma, po, 500 mg, Treatment A (fasting with water), single oral 500 mg, Geometric Mean, read-out: AUC0-t
  AUC0-t: 2710 ng·h/mL
Both sexes, human, plasma, po, 500 mg, Treatment A (fasting with water), single oral 500 mg, Geometric Mean, read-out: Cmax
  Cmax: 469 ng/mL
Both sexes, human, plasma, po, 500 mg, Treatment A (fasting with water), single oral 500 mg, Mean
  half-life: 1070 min
Both sexes, human, plasma, po, 500 mg, Treatment A (fasting with water), single oral 500 mg, Mean, read-out: AUC0-inf
  AUC0-inf: 3620 ng·h/mL
Both sexes, human, plasma, po, 500 mg, Treatment A (fasting with water), single oral 500 mg, Mean, read-out: AUC0-t
  AUC0-t: 2970 ng·h/mL
Both sexes, human, plasma, po, 500 mg, Treatment A (fasting with water), single oral 500 mg, Mean, read-out: Cmax
  Cmax: 575 ng/mL
Both sexes, human, plasma, po, 500 mg, Treatment A (fasting with water), single oral 500 mg, Median
  half-life: 1090 min
Both sexes, human, plasma, po, 500 mg, Treatment A (fasting with water), single oral 500 mg, Median, read-out: AUC0-inf
  AUC0-inf: 3400 ng·h/mL
Both sexes, human, plasma, po, 500 mg, Treatment A (fasting with water), single oral 500 mg, Median, read-out: AUC0-t
  AUC0-t: 2620 ng·h/mL
Both sexes, human, plasma, po, 500 mg, Treatment A (fasting with water), single oral 500 mg, Median, read-out: Cmax
  Cmax: 542 ng/mL
Both sexes, human, plasma, po, 500 mg, Treatment A (fasting with water), single oral 500 mg, Median, read-out: tmax
  tmax: 2 h
Both sexes, human, plasma, po, 500 mg, Treatment B (fed with water), single oral 500 mg, Geometric Mean, read-out: AUC0-inf
  AUC0-inf: 6740 ng·h/mL
Both sexes, human, plasma, po, 500 mg, Treatment B (fed with water), single oral 500 mg, Geometric Mean, read-out: AUC0-t
  AUC0-t: 6200 ng·h/mL
Both sexes, human, plasma, po, 500 mg, Treatment B (fed with water), single oral 500 mg, Geometric Mean, read-out: Cmax
  Cmax: 1180 ng/mL
Both sexes, human, plasma, po, 500 mg, Treatment B (fed with water), single oral 500 mg, Mean
  half-life: 1220 min
Both sexes, human, plasma, po, 500 mg, Treatment B (fed with water), single oral 500 mg, Mean, read-out: AUC0-inf
  AUC0-inf: 7130 ng·h/mL
Both sexes, human, plasma, po, 500 mg, Treatment B (fed with water), single oral 500 mg, Mean, read-out: AUC0-t
  AUC0-t: 6560 ng·h/mL
Both sexes, human, plasma, po, 500 mg, Treatment B (fed with water), single oral 500 mg, Mean, read-out: Cmax
  Cmax: 1250 ng/mL
Both sexes, human, plasma, po, 500 mg, Treatment B (fed with water), single oral 500 mg, Median
  half-life: 1130 min
Both sexes, human, plasma, po, 500 mg, Treatment B (fed with water), single oral 500 mg, Median, read-out: AUC0-inf
  AUC0-inf: 6810 ng·h/mL
Both sexes, human, plasma, po, 500 mg, Treatment B (fed with water), single oral 500 mg, Median, read-out: AUC0-t
  AUC0-t: 6110 ng·h/mL
Both sexes, human, plasma, po, 500 mg, Treatment B (fed with water), single oral 500 mg, Median, read-out: Cmax
  Cmax: 1150 ng/mL
Both sexes, human, plasma, po, 500 mg, Treatment B (fed with water), single oral 500 mg, Median, read-out: tmax
  tmax: 2.75 h
Both sexes, human, plasma, po, 500 mg, Treatment C (fasting with acidic beverage), single oral 500 mg, Geometric Mean, read-out: AUC0-inf
  AUC0-inf: 3720 ng·h/mL
Both sexes, human, plasma, po, 500 mg, Treatment C (fasting with acidic beverage), single oral 500 mg, Geometric Mean, read-out: AUC0-t
  AUC0-t: 3340 ng·h/mL
Both sexes, human, plasma, po, 500 mg, Treatment C (fasting with acidic beverage), single oral 500 mg, Geometric Mean, read-out: Cmax
  Cmax: 558 ng/mL
Both sexes, human, plasma, po, 500 mg, Treatment C (fasting with acidic beverage), single oral 500 mg, Mean
  half-life: 1170 min
Both sexes, human, plasma, po, 500 mg, Treatment C (fasting with acidic beverage), single oral 500 mg, Mean, read-out: AUC0-inf
  AUC0-inf: 4240 ng·h/mL
Both sexes, human, plasma, po, 500 mg, Treatment C (fasting with acidic beverage), single oral 500 mg, Mean, read-out: AUC0-t
  AUC0-t: 3830 ng·h/mL
Both sexes, human, plasma, po, 500 mg, Treatment C (fasting with acidic beverage), single oral 500 mg, Mean, read-out: Cmax
  Cmax: 728 ng/mL
Both sexes, human, plasma, po, 500 mg, Treatment C (fasting with acidic beverage), single oral 500 mg, Median
  half-life: 1100 min
Both sexes, human, plasma, po, 500 mg, Treatment C (fasting with acidic beverage), single oral 500 mg, Median, read-out: AUC0-inf
  AUC0-inf: 4260 ng·h/mL
Both sexes, human, plasma, po, 500 mg, Treatment C (fasting with acidic beverage), single oral 500 mg, Median, read-out: AUC0-t
  AUC0-t: 3800 ng·h/mL
Both sexes, human, plasma, po, 500 mg, Treatment C (fasting with acidic beverage), single oral 500 mg, Median, read-out: Cmax
  Cmax: 666 ng/mL
Both sexes, human, plasma, po, 500 mg, Treatment C (fasting with acidic beverage), single oral 500 mg, Median, read-out: tmax
  tmax: 2 h
Geometric Mean
  AUC0-t Ratio C/A: 126%
  AUC0-t Ratio B/C: 184%
  AUC0-t Ratio B/A: 233%
Maximum
  AUC0-t Ratio C/A: 588%
  AUC0-t Ratio B/C: 615%
  AUC0-t Ratio B/A: 490%
Mean
  AUC0-t Ratio C/A: 160%
  AUC0-t Ratio B/C: 208%
  AUC0-t Ratio B/A: 253%
Median
  AUC0-t Ratio C/A: 131%
  AUC0-t Ratio B/C: 156%
  AUC0-t Ratio B/A: 211%
Minimum
  AUC0-t Ratio C/A: 23.3%
  AUC0-t Ratio B/C: 83.2%
  AUC0-t Ratio B/A: 132%
[3]
  AUC0-t Ratio C/A: 23.3% and 120% and 134% and 101% and 588% and 187% and 132% and 155% and 89.3% and 130% and 143% and 111%
  AUC0-t Ratio B/C: 615% and 156% (2×) and 258% and 210% and 83.2% and 168% and 131% and 267% and 148% and 211% and 147% and 153%
  AUC0-t Ratio B/A: 144% and 187% and 346% and 212% and 490% and 313% and 173% and 292% and 415% and 132% and 203% and 211% and 169%
Fed state (Treatment B) compared to fasting state with acidic beverage (Treatment C)
  increase in systemic exposure: 108%
Fed state (Treatment B) compared to fasting state with water (Treatment A)
  increase in systemic exposure: 153%
